Values joined by “and” are separate entries in the source; they are usually repeats but may differ in a detail not shown here. Identical values can stand only once.
Test: xn = mol fraction of the nth substance listed

Clc1cccc2ccccc12 + COc1ccccc1
viscosity [mPa·s], 101.33 kPa
Settings	x1 = 0.0985	x1 = 0.1969	x1 = 0.2977	x1 = 0.3974	x1 = 0.4997	x1 = 0.5959	x1 = 0.6962	x1 = 0.7827	x1 = 0.8985
298.15 K	1.025	1.116	1.262	1.409	1.568	1.72	1.896	2.096	2.425
303.15 K	0.946	1.045	1.159	1.291	1.43	1.566	1.724	1.891	2.18
308.15 K	0.878	0.966	1.069	1.185	1.312	1.431	1.57	1.717	1.973

CCCCn1cc[n+](C)c1.F[P-](F)(F)(F)(F)F + CS(C)=O
Settings	viscosity [mPa·s]
298.15 K, 101 kPa, x1 = 0.7812	117.5

Clc1ccccc1 + CS(C)=O
viscosity [mPa·s]
Settings	298.15 K	299 K	308.15 K	318.15 K
101 kPa, x2 = 0.0871	–	1.227	–	–
101 kPa, x2 = 0.2483	–	1.401	–	–
101 kPa, x2 = 0.462	–	1.715	–	–
101 kPa, x2 = 0.5887	–	2.067	–	–
101 kPa, x2 = 0.7046	–	2.357	–	–
101 kPa, x2 = 0.8612	–	2.819	–	–
101.3 kPa, x1 = 0.035	1.865	–	1.559	1.273
101.3 kPa, x1 = 0.072	1.803	–	1.474	1.224
101.3 kPa, x1 = 0.148	1.682	–	1.39	1.142
101.3 kPa, x1 = 0.23	1.564	–	1.29	1.098
101.3 kPa, x1 = 0.317	1.421	–	1.17	1.021
101.3 kPa, x1 = 0.411	1.299	–	1.077	0.927
101.3 kPa, x1 = 0.511	1.193	–	0.986	0.865
101.3 kPa, x1 = 0.619	1.085	–	0.929	0.833
101.3 kPa, x1 = 0.736	0.966	–	0.823	0.742
101.3 kPa, x1 = 0.863	0.866	–	0.733	0.668
101.3 kPa, x1 = 0.936	0.826	–	0.704	0.643
101.33 kPa, x2 = 0.1	0.826	–	0.738	0.656
101.33 kPa, x2 = 0.2	0.905	–	0.807	0.709
101.33 kPa, x2 = 0.3	0.993	–	0.88	0.769
101.33 kPa, x2 = 0.4	1.094	–	0.958	0.832
101.33 kPa, x2 = 0.5	1.206	–	1.043	0.902
101.33 kPa, x2 = 0.6	1.329	–	1.136	0.981
101.33 kPa, x2 = 0.7	1.466	–	1.239	1.068
101.33 kPa, x2 = 0.8	1.616	–	1.361	1.165
101.33 kPa, x2 = 0.9	1.784	–	1.5	1.274

N#CCCCCC#N + CS(C)=O
303.15 K, 101.33 kPa
Settings	viscosity [mPa·s]
x1 = 0.1031	2.027
x1 = 0.2999	2.489
x1 = 0.4015	2.76
x1 = 0.5024	3.06
x1 = 0.5947	3.343
x1 = 0.6945	3.682
x1 = 0.8441	4.243

CC(O)C(=O)O (centres undefined) + C[C@H](N)C(=O)O
101 kPa, x2 = 0.5
Settings	viscosity [mPa·s]
298.15 K	23710
318.15 K	3481

CC(O)C(=O)O (centres undefined) + C[N+](C)(C)CCO.[Cl-]
viscosity
Settings	100 kPa	101 kPa
293.15 K, x2 = 0.1	92.67 mPa·s	–
293.15 K, x2 = 0.1667	107.5 mPa·s	–
293.15 K, x2 = 0.3333	229.3 mPa·s	–
293.15 K, x2 = 0.5	527 mPa·s	–
300.15 K, x2 = 0.1	52.02 mPa·s	–
300.15 K, x2 = 0.1667	59.99 mPa·s	–
300.15 K, x2 = 0.3333	127 mPa·s	–
300.15 K, x2 = 0.5	276.9 mPa·s	–
303.15 K, x2 = 0.5	–	1245 mPa·s
308.15 K, x2 = 0.5	–	877.3 mPa·s
313.15 K, x1 = 0.57	–	267.5 mPa·s
313.15 K, x1 = 0.9	–	103.5 mPa·s
313.15 K, x1 = 0.94	–	103.5 mPa·s
313.15 K, x2 = 0.1	31.27 mPa·s	–
313.15 K, x2 = 0.1667	35.62 mPa·s	–
313.15 K, x2 = 0.3333	79.44 mPa·s	–
313.15 K, x2 = 0.5	157.6 mPa·s	626.3 mPa·s
318.15 K, x2 = 0.5	–	452.1 mPa·s
323.15 K, x2 = 0.1	20.21 mPa·s and 20.21 mPa·s	–
323.15 K, x2 = 0.1667	23.07 mPa·s	–
323.15 K, x2 = 0.3333	51 mPa·s	–
323.15 K, x2 = 0.5	97.82 mPa·s	335.1 mPa·s

Clc1cccc2ccccc12 + Cc1cc(C)cc(C)c1
viscosity [mPa·s], 101.33 kPa
Settings	x1 = 0.0983	x1 = 0.2041	x1 = 0.2992	x1 = 0.3988	x1 = 0.4984	x1 = 0.6008	x1 = 0.6999	x1 = 0.8017	x1 = 0.9016
298.15 K	0.688	0.807	0.929	1.086	1.251	1.476	1.706	2.019	2.376
303.15 K	0.644	0.753	0.863	1.003	1.15	1.346	1.551	1.826	2.138
308.15 K	0.605	0.703	0.803	0.927	1.062	1.239	1.419	1.661	1.935

— the CheMixHub viscosity set
